Laboratory results published in patent publication US5331006A, “Amino acid analogs as CCK antagonists” (Warner-Lambert Company, priority 1991, dated 1994).

Molecular target: T1, CCK receptor sites (Mus musculus, UniProt P56481)
T1 construct: from tissue; host or cells: cerebral cortex membranes of male CFLP mice
T1 sequence (P56481 1-453): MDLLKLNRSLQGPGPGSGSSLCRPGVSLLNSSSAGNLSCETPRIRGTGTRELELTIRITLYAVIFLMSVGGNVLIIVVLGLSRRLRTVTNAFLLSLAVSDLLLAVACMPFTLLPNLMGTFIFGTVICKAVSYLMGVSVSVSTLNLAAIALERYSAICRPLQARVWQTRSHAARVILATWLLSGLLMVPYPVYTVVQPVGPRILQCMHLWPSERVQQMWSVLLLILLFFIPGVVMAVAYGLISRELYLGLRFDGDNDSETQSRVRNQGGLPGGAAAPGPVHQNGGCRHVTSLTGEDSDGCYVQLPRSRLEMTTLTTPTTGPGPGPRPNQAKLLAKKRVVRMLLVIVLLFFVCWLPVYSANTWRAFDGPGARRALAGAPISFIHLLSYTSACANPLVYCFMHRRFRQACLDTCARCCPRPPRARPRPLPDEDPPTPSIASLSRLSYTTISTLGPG
Assay: CCK receptor binding, displacement of tritiated pentagastrin from mouse cerebral cortex membranes
Parameters: key: IA = Inactive in respect to this binding assay
Details: 2 nM tritiated pentagastrin, mouse cerebral cortical membranes; Ki from IC50 by Cheng-Prusoff
Description: The biological activity of compounds of the present invention was evaluated employing an initial screening test which rapidly and accurately measured the binding of the tested compound to known CCK receptor sites. […] (See Hays, et al, Neuropeptides 1:53-62, 1980; and Satuer, et al, Science 208:1155-1156, 1980.)
In this screening test the cerebral cortices taken from male CFLP mice weighing between 30 to 40 g were dissected on ice, weighed, and homogenized in 10 volumes of 50 mM Tris-HCl buffer (pH 7.4 at 0° to 4° C.). The resulting suspension was centrifuged, the supernate was discarded, and the pellet was washed by resuspension in Tris-HCl buffer followed by recentrifugation. The final pellet was resuspended in 20 volumes of […] Hepes buffer (pH 7.2 at 23° C.) containing 130 mM NaCl, […] KCl, […] MgCl2, […] EDTA, 5 mg/mL bovine albumin, and bacitracin (0.25 mg/mL).
In saturation studies, cerebral cortical membranes were incubated at 23° C. for 120 minutes in a final volume of 500 μL of Hepes incubation buffer (pH 7.2) together with 0.2-20 nM tritiated-pentagastrin (Amersham International, England).
In the displacement experiments, membranes were incubated with a single concentration (2 nM) of ligand, together with increasing concentrations of competitive test compound. In each case, the nonspecific binding was defined as that persisting in the presence of the unlabeled octapeptide CCK26-33 (10^-6 M).
Following incubation, radioactivity bound to membranes was separated from that free in solution by rapid filtration through Whatman GF/B filters and washed three times with 4 mL of ice cold Tris-HCl buffer. Filters from samples incubated with tritiated pentagastrin were placed in polyethylene vials with 4 mL of scintillation cocktail, and the radioactivity was estimated by liquid scintillation spectrometry (efficiency 47% to 52%).
The specific binding to CCK receptor sites was defined as the total bound tritiated pentagastrin minus the amount of tritiated pentagastrin bound in the presence of 10^-6 octapeptide, CCK26-33.
Saturation curves for specific tritiated pentagastrin binding to mouse cortical membranes were analyzed by the methods of Scatchard (Ann. New York Acad. Sci. 51:660-672, 1949; Hill, J. Physiol. 40:IV-VIII, 1910) to provide estimates for the maximum number of binding sites (βmax)and the equilibrium dissociation constant (Ka).
In displacement experiments, inhibition curves were analyzed by either logit-log plots or the iterative curve fitting computer program ALLFIT (DeLean, Munson, and Redbard, 1978) to provide estimates of the IC50 and nH (apparent Hill coefficient) values). IC50 values were defined as the concentration of test compound required to produce 50% inhibition of specific binding).
The inhibition constant (Ki) of the test compound was then calculated according to the Cheng-Prusoff equation: [formula] where [L] is the concentration of radiolabel and Ka is the equilibrium dissociation constant.
The Ki values for several representative compounds of the present invention are present in Table II.

`CC(Cc1cccc[n+]1[O-])(NC(=O)OC1C2CC3CC(C2)CC1C3)C(=O)NCCc1ccccc1` (centres unmarked) [drawing 22 (H H H H H)] was tested, and the Ki was “IA”.
In the case of `CC(Cc1ccncc1)(NC(=O)OC1C2CC3CC(C2)CC1C3)C(=O)NC(CO)Cc1ccccc1` (centres unmarked) [drawing 61 (Diast II)], the Ki is reported as “IA”.
For `CC(Cc1ccc[n+]([O-])c1)(NC(=O)OC1C2CC3CC(C2)CC1C3)C(=O)NCCc1ccccc1` (centres unmarked), the Ki was “IA”.
With `CC(Cc1cccnc1)(NC(=O)OC1C2CC3CC(C2)CC1C3)C(=O)NCCc1ccccc1` (centres unmarked) the Ki was “IA”.
With `Cc1[nH]cc(CC(C)(NC(=O)OC2C3CC4CC(C3)CC2C4)C(=O)NCCc2ccccc2)c1C` (centres unmarked) [drawing 56 (H H H H H)] the Ki was “IA”.
`CC(Cc1cccc[n+]1[O-])(NC(=O)OC1C2CC3CC(C2)CC1C3)C(=O)NC(CO)Cc1ccccc1` (single isomer, unassigned) [drawing 22 (Diast II)] was tested, and the Ki was “IA”.
In the case of `CC(Cc1ccc[n+]([O-])c1)(NC(=O)OC1C2CC3CC(C2)CC1C3)C(=O)NC(CO)Cc1ccccc1` (centres unmarked) [drawing 60 (Diast I)], the Ki is reported as “IA”.
With `CC(Cc1c[nH]c2ccncc12)(NC(=O)OC1C2CC3CC(C2)CC1C3)C(=O)NC(CO)C(O)c1ccccc1` (centres unmarked) [drawing 67] the Ki was “IA”.
`CC(Cc1cccc[n+]1[O-])(NC(=O)OC1C2CC3CC(C2)CC1C3)C(=O)NC(CO)Cc1ccccc1` (single isomer, unassigned) [drawing 20] was tested, and the Ki was “IA”.
For `CC(Cc1n[nH]c2ccccc12)(NC(=O)OC1C2CC3CC(C2)CC1C3)C(=O)NCC(c1ccccc1)N1C(=O)CCC1=O` (centres unmarked) [drawing 53/drawing 54 (Diast I)], the Ki was “IA”.

Same assay, conditions: 2 nM tritiated pentagastrin, mouse cerebral cortical membranes; Ki from IC50 by Cheng-Prusoff; read-out: Ki

`CC(Cc1ncc2ccccn12)(NC(=O)OC1C2CC3CC(C2)CC1C3)C(=O)N[C@@H](CO)[C@@H](O)c1ccccc1` (some centres unmarked) [drawing 57 (H H CH2 OH H OH)] and `CC(Cc1ncc2ccccn12)(NC(=O)OC1C2CC3CC(C2)CC1C3)C(=O)NCCc1ccccc1` (centres unmarked) [drawing 57 (H H H H H)] are within 1.5-fold of each other in Ki: 0.75 µM for the first, 0.93 µM for the second.

First: CC(Cc1c[nH]c2ncccc12)(NC(=O)OC1C2CC3CC(C2)CC1C3)C(=O)NC(CO)C(O)c1ccccc1 (centres unmarked) [drawing 66 (Diast II)]
Second: CC(Cc1c[nH]c2ccncc12)(NC(=O)OC1C2CC3CC(C2)CC1C3)C(=O)NC(CO)C(O)c1ccccc1 (centres unmarked) [drawing 69]
The Ki of the first is 53-fold lower: 0.043 µM for the first, 2.3 µM for the second.

`CC(Cc1csc2ccccc12)(NC(=O)OC1C2CC3CC(C2)CC1C3)C(=O)N[C@H](CO)Cc1ccccc1` (some centres unmarked) [drawing 47 (H H CH2 OH H H)] and `CC(Cc1coc2ccccc12)(NC(=O)OC1C2CC3CC(C2)CC1C3)C(=O)NC(CO)Cc1ccccc1` (centres unmarked) [drawing 27 (H H CH2 OH H H)] are within 1.5-fold of each other in Ki: 0.455 µM for the first, 0.36 µM for the second.

Compared with `CC(CC1CCc2ccccc2N1)(NC(=O)OC1C2CC3CC(C2)CC1C3)C(=O)NCC(NC(=O)CCC(=O)O)c1ccccc1` (centres unmarked), `CC(CC1C=Cc2ccccc2N1)(NC(=O)OC1C2CC3CC(C2)CC1C3)C(=O)NCC(NC(=O)CCC(=O)O)c1ccccc1` (centres unmarked) is 4.3-fold higher in Ki: 0.69 µM for the first, 3 µM for the second.

First: CC(Cc1ccncc1)(NC(=O)OC1C2CC3CC(C2)CC1C3)C(=O)NCC(NC(=O)CCC(=O)O)c1ccccc1 (centres unmarked)
Second: CC(Cc1n[nH]c2ccccc12)(NC(=O)OC1C2CC3CC(C2)CC1C3)C(=O)NCC(NC(=O)CCC(=O)O)c1ccccc1 (centres unmarked) [drawing 53 (H H H H NHCOCH2 CH2 COOH)]
The Ki of the first is 2.3-fold higher: 0.22 µM for the first, 0.096 µM for the second. The second binds more tightly here.

Going from `CC(Cc1cc2c(cn1)[nH]c1ccccc12)(NC(=O)OC1C2CC3CC(C2)CC1C3)C(=O)NC(CO)Cc1ccccc1` (centres unmarked) to `CC(Cc1cc2c(cn1)[nH]c1ccccc12)(NC(=O)OC1C2CC3CC(C2)CC1C3)C(=O)NCCc1ccccc1` (centres unmarked), the Ki rises from 1.39 µM to 2.17 µM (1.6-fold). The first binds more tightly here.

`CC(Cc1cnc2ccccc2c1)(NC(=O)OC1C2CC3CC(C2)CC1C3)C(=O)NCCc1ccccc1` (centres unmarked) and `CC(Cc1ccc2ccccc2n1)(NC(=O)OC1C2CC3CC(C2)CC1C3)C(=O)NCCc1ccccc1` (centres unmarked) [drawing 36 (H H H H H)] are within 1.5-fold of each other in Ki: 0.304 µM for the first, 0.4 µM for the second.

Going from `CN1c2ccccc2C(c2ccccc2)=NCC1CC(C)(NC(=O)OC1C2CC3CC(C2)CC1C3)C(=O)NCCc1ccccc1` (centres unmarked) [drawing 64 (Diast I)] to `CN1c2ccccc2C(c2ccccc2)=NCC1CC(C)(NC(=O)OC1C2CC3CC(C2)CC1C3)C(=O)NCC(NC(=O)CCC(=O)O)c1ccccc1` (centres unmarked), the Ki falls from 0.76 µM to 0.29 µM (2.6-fold).

Compared with `CC(Cc1c(Br)oc2ccccc12)(NC(=O)OC1C2CC3CC(C2)CC1C3)C(=O)NC(CO)Cc1ccccc1` (centres unmarked) [drawing 28 (H H CH2 OH H H)], `CC(Cc1c(Br)oc2ccccc12)(NC(=O)OC1C2CC3CC(C2)CC1C3)C(=O)NCCc1ccccc1` (centres unmarked) [drawing 28 (H H H H H)] is 91-fold higher in Ki: 0.014 µM for the first, 1.28 µM for the second.

`CC(Cc1ccccn1)(NC(=O)OC1C2CC3CC(C2)CC1C3)C(=O)NCCc1ccccc1` (centres unmarked) and `CC(Cc1ccncc1)(NC(=O)OC1C2CC3CC(C2)CC1C3)C(=O)NCCc1ccccc1` (centres unmarked) are the same in Ki: 3 µM for the first, 3 µM for the second.

`CC(Cc1coc2ccccc12)(NC(=O)OC1C2CC3CC(C2)CC1C3)C(=O)NCCc1ccccc1` (centres unmarked) [drawing 27 (H H H H H)] and `CC(Cc1csc2ccccc12)(NC(=O)OC1C2CC3CC(C2)CC1C3)C(=O)NCCc1ccccc1` (centres unmarked) [drawing 47 (H H H H H)] are within 1.5-fold of each other in Ki: 0.99 µM for the first, 0.76 µM for the second.

Going from `CC(Cc1ccnc2ccccc12)(NC(=O)OC1C2CC3CC(C2)CC1C3)C(=O)N[C@H](CO)Cc1ccccc1` (some centres unmarked) [drawing 40 (H H CH2 OH H H)] to `CC(Cc1cccc2ccccc12)(NC(=O)OC1C2CC3CC(C2)CC1C3)C(=O)NC(CO)Cc1ccccc1` (centres unmarked) [drawing 24], the Ki rises from 0.129 µM to 0.72 µM (5.6-fold).

`CC(Cc1ccc2ccccc2n1)(NC(=O)OC1C2CC3CC(C2)CC1C3)C(=O)N[C@H](CO)Cc1ccccc1` (some centres unmarked) [drawing 36 (Diast I)] and `CC(Cc1ccc2ccccc2n1)(NC(=O)OC1C2CC3CC(C2)CC1C3)C(=O)NC(CO)Cc1ccccc1` (centres unmarked) [drawing 43 (H H CH2 OH H H)] are within 1.5-fold of each other in Ki: 0.41 µM for the first, 0.402 µM for the second.

Going from `CC(Cc1cccnc1)(NC(=O)OC1C2CC3CC(C2)CC1C3)C(=O)N[C@H](CO)Cc1ccccc1` (some centres unmarked) [drawing 32 (Diast I)] to `CC(Cc1ccncc1)(NC(=O)OC1C2CC3CC(C2)CC1C3)C(=O)NC(CO)Cc1ccccc1` (centres unmarked) [drawing 61 (Diast I)], the Ki falls from 0.7 µM to 0.37 µM (1.9-fold).

First: CC(Cc1n[nH]c2ccccc12)(NC(=O)OC1C2CC3CC(C2)CC1C3)C(=O)NCC(c1ccccc1)N1C(=O)CCC1=O (centres unmarked) [drawing 53/drawing 54 (Diast II)]
Second: CC(Cc1n[nH]c2ccccc12)(NC(=O)OC1C2CC3CC(C2)CC1C3)C(=O)NCCc1ccccc1 (centres unmarked) [drawing 38 (H H H H H)]
The Ki of the first is 2.2-fold higher: 0.22 µM for the first, 0.1 µM for the second.

First: CC(Cc1cc2c3ccccc3n(S(C)(=O)=O)c2cn1)(NC(=O)OC1C2CC3CC(C2)CC1C3)C(=O)NC(CO)Cc1ccccc1 (centres unmarked)
Second: CC(Cc1n[nH]c2ccccc12)(NC(=O)OC1C2CC3CC(C2)CC1C3)C(=O)N[C@H](CO)Cc1ccccc1 (some centres unmarked) [drawing 38 (H H CH2 OH H H)]
The Ki of the first is 12-fold higher: 0.844 µM for the first, 0.069 µM for the second. The second binds more tightly here.

Compared with `CC(Cc1c[nH]c2ncccc12)(NC(=O)OC1C2CC3CC(C2)CC1C3)C(=O)NC(CO)C(O)c1ccccc1` (centres unmarked) [drawing 66 (Diast I)], `Cc1[nH]cc(CC(C)(NC(=O)OC2C3CC4CC(C3)CC2C4)C(=O)NC(CO)C(O)c2ccccc2)c1C` (centres unmarked) [drawing 56 (H H CH2 OH H OH)] is 5.2-fold higher in Ki: 0.58 µM for the first, 3 µM for the second. The first binds more tightly here.

Going from `CC(Cc1ccnc2ccccc12)(NC(=O)OC1C2CC3CC(C2)CC1C3)C(=O)NCC(NC(=O)CCC(=O)O)c1ccccc1` (centres unmarked) to `CC(Cc1ccnc2ccccc12)(NC(=O)OC1C2CC3CC(C2)CC1C3)C(=O)NCCc1ccccc1` (centres unmarked) [drawing 40 (H H H H H)], the Ki rises from 0.088 µM to 0.262 µM (3-fold). The first binds more tightly here.

With `CC(C)COC(=O)OC[C@H](Cc1ccccc1)NC(=O)C(C)(Cc1cccnc1)NC(=O)OC1C2CC3CC(C2)CC1C3` (some centres unmarked) [drawing 32 (H H CH2 OCO2 i-Bu H H)] the Ki was 3 µM.
